biological target: RNA-directed RNA polymerase (Hepacivirus hominis, UniProt O39930); assay: Inhibition of HCV RNA polymerase
Sequence (O39930 whole entry): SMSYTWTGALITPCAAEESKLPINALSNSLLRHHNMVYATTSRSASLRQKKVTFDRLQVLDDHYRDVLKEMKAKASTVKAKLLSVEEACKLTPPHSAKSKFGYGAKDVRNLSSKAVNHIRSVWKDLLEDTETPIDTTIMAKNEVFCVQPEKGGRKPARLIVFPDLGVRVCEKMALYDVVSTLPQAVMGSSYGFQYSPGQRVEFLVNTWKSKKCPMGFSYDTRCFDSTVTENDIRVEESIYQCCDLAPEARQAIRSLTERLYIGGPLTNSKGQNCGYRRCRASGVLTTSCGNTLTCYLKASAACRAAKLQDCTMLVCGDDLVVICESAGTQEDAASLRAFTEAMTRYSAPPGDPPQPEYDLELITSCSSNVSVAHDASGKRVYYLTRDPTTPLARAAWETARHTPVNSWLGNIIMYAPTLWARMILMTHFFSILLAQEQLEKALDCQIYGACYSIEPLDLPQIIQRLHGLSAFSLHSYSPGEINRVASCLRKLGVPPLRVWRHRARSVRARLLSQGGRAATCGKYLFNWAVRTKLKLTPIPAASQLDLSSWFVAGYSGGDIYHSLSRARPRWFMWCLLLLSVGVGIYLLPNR

Row | Compound | IC50 [nM]
1 | CNC(=O)c1c(-c2ccc(F)cc2)oc2nc(CNC(=O)COC)c(C3CC3)cc12 | 3160
2 | CNC(=O)c1c(-c2ccc(F)cc2)oc2nc(CNC(=O)C3CCOC3)c(C3CC3)cc12 (stereo not given) | 2510
3 | CNC(=O)c1c(-c2ccc(F)cc2)oc2nc(CN)c(C3CC3)cc12 | 6310

The next molecules have a lower IC50 than those just listed; values first:

Row | IC50 [nM] | Compound
4 | 501 | CNC(=O)c1c(-c2ccc(F)cc2)oc2nc(CNS(C)(=O)=O)c(C3CC3)cc12
5 | 631 | CNC(=O)c1c(-c2ccc(F)cc2)oc2nc(CNC(C)=O)c(C3CC3)cc12

Reference: ChEMBL document CHEMBL4257466, “The use of matched molecular series networks for cross target structure activity relationship translation and potency prediction” (Medchemcomm, 2017)
